The structures appear in SMILES notation.

Our source for the RP-LC retention time values is the METLIN SMRT retention time set (Domingo-Almenara et al. 2019).

This data set in a line: gradient 5% acetonitrile 3 min, to 50% in 2 min, to 85% in 15 min, held 3 min, 100 µL/min. The conditions noted are these: column: Zorbax Extend-C18 2.1 x 50 mm; eluents: water / acetonitrile, 0.1% formic acid. The method, boiled down:
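Over 3 months, pure standards in mixtures of ~100 molecules were run by HPLC coupled to a quadrupole time-of-flight mass spectrometer in positive and negative ionization mode. The column was a Zorbax Extend-C18 (2.1 × 50 mm, 1.8 μm) at 100 μL/min, eluted with water and acetonitrile each holding 0.1% formic acid, with 40 μL dead and 900 μL dwell volumes. Retention time was determined from adduct peaks chosen by software and checked manually.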
Turning to `CCOc1ccc(-n2c(N(CC)CC)nc3cc(C(=O)OC)ccc3c2=O)cc1`, the RP-LC retention time stood at 1230 s.

`Cc1ccc(CNC(=O)CCCn2c(=O)c3sccc3n(CC(=O)N3CCCCC3C)c2=O)cc1` (centres undefined) had an RP-LC retention time of 859 s.

Consider `O=C(C1COc2ccccc2O1)N1CCCC(COCc2ccccc2)C1` (centres undefined), for which the RP-LC retention time was found to be 1030 s.

For `CCC(C)NC(=O)C1CCCN(c2nccnc2Sc2ccc(C)cc2)C1` (centres undefined), the RP-LC retention time is 1320 s.

`O=C(C1c2ccccc2CCN1C(=O)C1CC1)N1CCN(c2ccccc2F)CC1` (centres undefined) came in with an RP-LC retention time of 947 s.

`COc1ccc(N2C(=O)CCC(C(=O)NCCCN3CCN(C)CC3)C2c2ccc(F)cc2)cc1` (centres undefined) gave an RP-LC retention time of 526 s.

Regarding `Cc1ccc(C)c(N2CCN(c3ccnc(SCC(=O)NCc4ccc(F)cc4)n3)CC2)c1`, the RP-LC retention time amounted to 908 s.

Regarding `CC1(C(=O)NC2CCCC2)Cn2cnc(C(=O)NCc3cccc(F)c3)c2C(=O)N1C1CC1` (centres undefined), the RP-LC retention time stood at 753 s.

Compound `Cc1cc(-c2nnc(-c3ccc(F)cc3)o2)c(C)n1CC(=O)N1CCCC1` came in with an RP-LC retention time of 808 s.

The compound `CCOc1ccccc1NC(=O)CN1CCN(c2nccn2-c2ccc(C)cc2)CC1` registered an RP-LC retention time of 612 s.

For the compound `O=S(=O)(c1cccn2c(SCc3ccccc3F)nnc12)N1CCCC1`, the RP-LC retention time amounted to 803 s.

Take `COc1ccc(NC(=O)c2ccc3c(c2)OCCO3)c([N+](=O)[O-])c1`: the RP-LC retention time was 874 s.

Consider `CC1=C(c2ccc(F)cc2)S(=O)(=O)N=C1N1CCCN(C(=O)NC(C)(C)C)CC1`, for which the RP-LC retention time was 602 s.

Compound `CC(C)NC(=O)c1cccc(Nc2c(-c3ccc(Cl)cc3)nc3cnccn23)c1` came in with an RP-LC retention time of 687 s.

The compound `CCc1nc2cc(-c3noc(-c4cc(Cl)ccc4OC)n3)ccc2o1` gave an RP-LC retention time of 1220 s.

With `Cc1nnc(-c2cn(CC(=O)Nc3ccc(Br)cc3)c3ccccc23)o1`, the RP-LC retention time was 888 s.

In the case of `CC(C)Oc1ccc(CN2C[C@@H]3C(=O)N(CCCN4CCCC4=O)C(=O)[C@@H]3C2)cc1`, the RP-LC retention time was 581 s.

In turn, `Cc1csc(NC(=O)C2CCCN(c3ncnc4c3nc3n4CCCCC3)C2)n1` (centres undefined) came in with an RP-LC retention time of 756 s.

For the compound `CC(C)(C)NCC(O)c1ccccc1Cl` (centres undefined), the RP-LC retention time is 650 s.

For the compound `Cc1cc(-c2nnc(NC(=O)Cc3ccc4c(c3)OCO4)o2)n(C)n1`, the RP-LC retention time turned out to be 648 s.

Turning to `Cn1nccc1-c1cccc(-c2noc(-c3ccc(Br)cc3)n2)c1`, the RP-LC retention time turned out to be 1280 s.

With `CCCNc1nc(C(=O)OCC)nc2ccccc12`, the RP-LC retention time was 626 s.

Compound `CCc1cccc(NC(=O)N(C)CC2CCOCC2)c1` had an RP-LC retention time of 795 s.

`CN(CC1CCOCC1)C(=O)Nc1cccc(Cl)c1` returned an RP-LC retention time of 750 s.

In turn, `CCc1cc(C2CCCN2C(=O)Nc2ccc(OC)cc2OC)on1` (centres undefined) had an RP-LC retention time of 829 s.

Compound `CN1CCN(CCNC(=O)C2CCN(c3nc4cccnc4s3)CC2)CC1` came in with an RP-LC retention time of 555 s.

Consider `Cc1oc(-c2[nH]ncc2C(=O)N2CCCC2)cc1S(=O)(=O)NCc1cc(F)ccc1F`, for which the RP-LC retention time came to 700 s.

For `CCC(C)NC(=O)N1CC(Oc2ccc(-c3nc(C)no3)cc2)C1` (centres undefined), the RP-LC retention time worked out at 873 s.

`COc1ccc(-c2nc(C3CC(=O)N(c4ccccc4)C3)no2)cc1` (centres undefined) displayed an RP-LC retention time of 971 s.

With `NS(=O)(=O)c1ccc(CCNC(=O)CCCn2cccc2)cc1`, the RP-LC retention time is 627 s.

For the compound `Cc1ccc(-c2noc(Cc3nnc(-c4cccc(C)c4)o3)n2)cc1`, the RP-LC retention time turned out to be 1130 s.

Compound `Cc1ccccc1-c1nnc(COc2ccc(NC(=O)c3n[nH]c4c3CCCC4)cc2)o1` had an RP-LC retention time of 975 s.

For `COc1ccc(-c2nnc(COc3ccc(NS(C)(=O)=O)cc3)o2)cc1`, the RP-LC retention time came out at 762 s.

In turn, `COc1c(C)cc(S(=O)(=O)NCCN2CCOCC2)c(C)c1C` registered an RP-LC retention time of 568 s.

Compound `Cc1ccc(-c2nnc(C)c(NCCN3CCOCC3)n2)cc1` yielded an RP-LC retention time of 547 s.

`Cc1cccc2nnc(N3CCN(C(=O)c4ccc(F)cc4)CC3)n12` displayed an RP-LC retention time of 648 s.

In turn, `Cn1nc(-c2nnc(-c3ccc(F)cc3)o2)c2c1CCN(S(=O)(=O)c1cccc(Cl)c1)C2` had an RP-LC retention time of 987 s.

`CCS(=O)(=O)N1CCCC(n2c(C)cnc2-c2ccncc2)C1` (centres undefined) came in with an RP-LC retention time of 565 s.

In turn, `Cn1nc(C(=O)N2CCCCC2)c2c1CCN(C(=O)CCC(=O)NCCCN1CCCC1)C2` had an RP-LC retention time of 579 s.

Consider `C[C@@H]1O[C@@H](O[C@H]2[C@H](Oc3cc(O)c(C(=O)CCc4ccc(O)cc4)c(O)c3)O[C@H](CO)[C@@H](O)[C@@H]2O)[C@H](O)[C@H](O)[C@H]1O`, for which the RP-LC retention time was found to be 650 s.

`O=S(=O)(CCOc1ccccc1)N1CCN(c2ccccc2F)CC1` registered an RP-LC retention time of 1010 s.

The compound `CCCN1C(=O)c2cccnc2Sc2cc(C(=O)NC(C)C)ccc21` returned an RP-LC retention time of 753 s.

For the compound `Cc1ccc(CNC(=O)C2(C)CCCN(C(=O)Nc3ccc(F)cc3)C2)cc1` (centres undefined), the RP-LC retention time is 899 s.

As to `COCCN1C(=O)CCc2cc(NS(=O)(=O)c3cccc4nsnc34)ccc21`, the RP-LC retention time was determined as 716 s.

In turn, `CCCNC(=O)C1CCN(c2ccc(SCC(=O)Nc3cc(Cl)ccc3C)nn2)CC1` returned an RP-LC retention time of 690 s.

Compound `O=S(=O)(c1ccc(-c2noc(-c3ccc(F)cc3)n2)cc1)N1CCOCC1` showed an RP-LC retention time of 1050 s.

Consider `O=C(CC1CCCN(c2cnn(CC3CC3)c(=O)c2)C1)N1CCSCC1` (centres undefined), for which the RP-LC retention time was determined as 740 s.

`O=C(Nc1cnc(N2CCCCC2)nc1)c1cc(F)ccc1F` showed an RP-LC retention time of 952 s.

For the compound `Cc1ccc(N2CC(C(=O)N3CCCC3)CC2=O)cc1` (centres undefined), the RP-LC retention time came out at 640 s.

In turn, `CC(Cc1ccco1)NC(=O)c1ccc2ccnc(N3CCN(c4ccccc4)CC3)c2c1` (centres undefined) registered an RP-LC retention time of 806 s.

Compound `CCOc1ccc(NC(=O)Cn2c(=O)n(-c3ccc(F)cc3)c(=O)c3c2cc(C)n3C)cc1` showed an RP-LC retention time of 866 s.

Regarding `Cc1ccccc1-n1ccn(Cc2nc(-c3cccc(Br)c3)no2)c(=O)c1=O`, the RP-LC retention time was 931 s.

With `O=C(NC1CCN(c2cc(-c3cccs3)[nH]n2)C1)c1cccc2[nH]ccc12` (centres undefined), the RP-LC retention time came out at 672 s.

Turning to `CC(=O)N1CCCC1c1nc(C2CN(C(=O)c3ccsc3)C2)no1` (centres undefined), the RP-LC retention time was 629 s.

On to `Cc1ccc(NC(=O)Cn2c(N)nc(C)c(C)c2=O)c(C)c1`, for which the RP-LC retention time stood at 608 s.

Compound `Cc1ccc2c(Nc3ccc(S(N)(=O)=O)cc3)c(C(=O)N3CCCCC3C)cnc2n1` (centres undefined) displayed an RP-LC retention time of 590 s.

For the compound `COc1ccc(C)cc1N(C)C(=O)Cn1ccc2c(=O)n(C)c(=O)n(C)c21`, the RP-LC retention time was 714 s.

As for `COc1ccccc1-n1ccnc(NC(=O)Nc2ccc(F)cc2F)c1=O`, the RP-LC retention time is 938 s.

`CCOc1nn(CC)cc1-c1nnc(SCC(=O)N2CCCc3ccccc32)n1CC` registered an RP-LC retention time of 734 s.
